Counter-ions that a name gives are not always drawn. Bounds are passed on as bounds.

By Ki is commonly meant a measure of affinity in units of concentration, obtained from inhibition or displacement. High values mean weaker binding, low ones tighter binding.

purified CK2α enzyme, sequence (P68400 whole entry): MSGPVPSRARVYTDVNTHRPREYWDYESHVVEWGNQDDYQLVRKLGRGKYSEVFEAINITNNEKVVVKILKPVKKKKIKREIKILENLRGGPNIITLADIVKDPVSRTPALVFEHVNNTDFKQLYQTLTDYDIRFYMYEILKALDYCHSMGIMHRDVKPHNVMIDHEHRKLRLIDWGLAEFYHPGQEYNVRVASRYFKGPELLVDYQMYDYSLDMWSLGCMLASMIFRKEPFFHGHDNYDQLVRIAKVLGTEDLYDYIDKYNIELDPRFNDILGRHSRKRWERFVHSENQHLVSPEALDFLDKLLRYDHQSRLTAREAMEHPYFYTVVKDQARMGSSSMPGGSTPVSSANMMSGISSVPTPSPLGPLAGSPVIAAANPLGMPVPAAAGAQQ

The test addresses purified CK2α enzyme (Homo sapiens, UniProt P68400). The test is described as follows: CK2 Protein Kinase Inhibition Assay (coupled PK/LDH assay). As to conditions: CK2 enzyme 25 nM, 100 μM ATP, 37° C., Morrison equation. The format is biochemical. How it is done:
A coupled PK (pyruvate kinase)/LDH (lactate dehydrogenase) assay was used to measure compounds' ability to inhibit purified CK2α enzyme.
The ADP product of kinase CK2a is the cofactor for PK. Phospho(enol)pyruvate (PEP) PEP is metabolized by pyruvate kinase to yield pyruvate, which is the substrate for LDH.
Serially diluted compounds were pre-incubated for 10 min at 37° C. with and 1.5 mM […] peptide substrate, 6 U/ml PK and 10 U/ml LDH (purchased from Sigma-Aldrich), 100 μM ATP, 1.2 mM NADH, 4 mM PEP in the reaction buffer (50 mM Tris (pH 8.25), 0.1 M NaCl, 10 mM magnesium acetate). The reaction was initiated by the addition of an equal volume of purified CK2 enzyme (final concentration 25 nM) diluted in the reaction buffer. Absorbance at 340 nm was measured overtime (for 30 min) at 37° C.; as NADH was converted to NAD+ the absorbance decreases. Absorbance decrease rate (per min) was plotted against the compound concentration and Ki is determined by GraphPad Prism using Morrison equation. All data points were performed in triplicate and each compound was tested in at least two separate experiments.
To this end, K, values of less than 2.5 nM are labelled as “+++”, from 2.5 nM to 10 nM are labelled as “++”, and greater than 10 nM are labelled as “+”.
For `CS(=O)(=O)Cc1cc(Nc2cc(NC3CC3)n3ncc(C#N)c3n2)ccc1N1CC[C@H](N)C1` [Example 29, (S)-5-((4-(3-aminopyrrolidin-1-yl)-3-((methylsulfonyl)methyl)phenyl)amino)-7-(cyclopropylamino)pyrazolo[1,5-a]pyrimidine-3-carbonitrile mono trifluoroacetic acid salt], the Ki was less than 2.5 nM.

The molecule `CN(C)c1ccc(Nc2cc(NC3CC3)n3ncc(C#N)c3n2)cc1CS(C)(=O)=O` [Example 34, 7-(Cyclopropylamino)-5-((4-(dimethylamino)-3-((methylsulfonyl)methyl)phenyl)amino)pyrazolo[1,5-a]pyrimidine-3-carbonitrile] showed a Ki of less than 2.5 nM.

As to `CS(=O)(=O)Cc1cc(Nc2cc(NC3CC3)n3ncc(C#N)c3n2)ccc1C1(CN)CC1` [Example 39, 5-((4-(1-(Aminomethyl)cyclopropyl)-3-((methylsulfonyl)methyl)phenyl)amino)-7-(cyclopropylamino)pyrazolo[1,5-a]pyrimidine-3-carbonitrile mono trifluoroacetic acid salt], the Ki was less than 2.5 nM.

`CS(=O)(=O)Cc1cc(Nc2cc(NC3CC3)n3ncc(C#N)c3n2)ccc1N1CC(N)C1` [Example 41, 5-((4-(3-Aminoazetidin-1-yl)-3-((methylsulfonyl)methyl)phenyl)amino)-7-(cyclopropylamino)pyrazolo[1,5-a]pyrimidine-3-carbonitrile] had a Ki of 2.5 to 10 nM.

Molecule `CS(=O)(=O)Cc1cc(Nc2cc(NC3CC3)n3ncc(C#N)c3n2)ccc1N1CC(CN)C1` [Example 43, 5-((4-(3-(Aminomethyl)azetidin-1-yl)-3-((methylsulfonyl)methyl)phenyl)amino)-7-(cyclopropylamino)pyrazolo[1,5-a]pyrimidine-3-carbonitrile] registered an inhibitory constant (Ki) of less than 2.5 nM.

In the case of `CN(c1ccc(Nc2cc(NC3CC3)n3ncc(C#N)c3n2)cc1CS(C)(=O)=O)C1CNC1` [Example 45, 5-((4-(Azetidin-3-yl(methyl)amino)-3-((methylsulfonyl)methyl)phenyl)amino)-7-(cyclopropylamino)pyrazolo[1,5-a]pyrimidine-3-carbonitrile], the Ki lay within 2.5 to 10 nM.

In turn, `CN(CCN)c1ccc(Nc2cc(NC3CC3)c3ncc(C#N)n3n2)cc1CS(C)(=O)=O` [Example 48, 6-((4-((2-aminoethyl)(methyl)amino)-3-((methylsulfonyl)methyl)phenyl)amino)-8-(cyclopropylamino)imidazo[1,2-b]pyridazine-3-carbonitrile mono trifluoroacetic acid salt] registered a Ki of 2.5 to 10 nM.

In turn, `CN(CCN)c1ccc(Nc2nc(NC3CC3)c3ncc(C#N)n3n2)cc1CS(C)(=O)=O` [Example 50, 2-((4-((2-aminoethyl)(methyl)amino)-3-((methylsulfonyl)methyl)phenyl)amino)-4-(cyclopropylamino)imidazo[2,1-f][1,2,4]triazine-7-carbonitrile mono trifluoroacetic acid salt] had a Ki of 2.5 to 10 nM.

The molecule `CN(CCN)c1ccc(Nc2nc(NC3CC3)n3ncc(C#N)c3n2)cc1CS(C)(=O)=O` [Example 52, 2-((4-((2-aminoethyl)(methyl)amino)-3-((methylsulfonyl)methyl)phenyl)amino)-4-(cyclopropylamino)pyrazolo[1,5-a][1,3,5]triazine-8-carbonitrile mono trifluoroacetic acid salt] displayed an inhibition constant (Ki) of 2.5 to 10 nM.

With `CN(CC1(N)CC1)c1ccc(Nc2cc(NC3CC3)n3ncc(C#N)c3n2)cc1CS(C)(=O)=O` [Example 66, 5-((4-(((1-aminocyclopropyl)methyl)(methyl)amino)-3-((methylsulfonyl)methyl)phenyl)amino)-7-(cyclopropylamino)pyrazolo[1,5-a]pyrimidine-3-carbonitrile mono trifluoroacetic acid salt], the Ki was less than 2.5 nM.

(Values after patent US10227344B2, “CK2 inhibitors, compositions and methods thereof” (Polaris Pharmaceuticals, Inc., priority 2016, dated 2019).)
